Converted amounts (≈) assume the structure as drawn.
Experiments:
Frog virus 3 (FV3) [1] = assay: Endpoint virus titration (TCID50/mL) in EPC cells, FV3; assay type: cell-based; conditions: 800 µM acyclovir, 10 days, vs control
Experimental: (§1) Epithelioma Papulosum Cyprini (EPC; ATCC CRL-2872) cells were grown and handled as described in detail previously. IcHV-2 originates from Italy, while the ECV strain (14612/2012) was isolated from the brown bullhead in Hungary. The Frog Virus 3 strain Granoff (FV3, ATCC VR-567) was originally isolated from a leopard frog (Lithobates pipiens) in the USA in 1965 [38] and was propagated on various fish and reptilian cell lines before it was added to our collection by courtesy of Rachel Marschang (University of Hohenheim, Stuttgart, Germany). All three viruses were cultivated in the EPC cell line at 25 °C. The tissue culture infectious dose (TCID50/mL) was calculated by the Reed and Muench method.
(§2) The EPC cells were seeded into 96-well plates (2 × 10^4 cells/well) and incubated overnight at 25 °C. […] The titers were read after 10 days of incubation at 25 °C.

in vitro = assay type: cell-based; conditions: fathead minnow (Pimephales promelas)
Experimental: In brief, 96-well plates were seeded with the EPC cells at a density of 2 × 10^4 cells/well and incubated for 24 h at 25 °C. The growth medium was then replaced with acyclovir-containing medium at concentrations of 3200 µM, 1600 µM, 800 µM, 400 µM, 200 µM, 100 µM, and 50 µM.

[2] = Solubility of acyclovir in the cell culture medium; assay type: physicochemical; conditions: fully supplemented EMEM cell culture medium, crystallization observed at 3200 µM
Experimental: The following concentrations were prepared for the experiments: 3200 µM, 1600 µM, 800 µM, 400 µM, 200 µM, 100 µM, and 50 µM.

[3] = test system: Ictalurid herpesvirus 2 (IcHV-2); assay: Endpoint virus titration (TCID50/mL) in EPC cells, IcHV-2; assay type: cell-based; conditions: 800 µM acyclovir, 10 days, vs control
Experimental: as §1, §2

CyHV-3 = conditions: 222.02 and 444.04 µM acyclovir; cited from earlier work
[4] = test system: European catfish virus (ECV); assay: qPCR of viral DNA load in infected EPC cells, ECV; assay type: cell-based; conditions: 800 µM acyclovir, MOI 0.05, 48 h, normalized to beta-actin
Experimental: (§3) The EPC cells were also seeded in 24-well plates (2 × 10^5 cells/well) and incubated overnight at 25 °C. […] The plates were incubated for 48 h at 25 °C. Afterwards, the plates were frozen at −20 °C, followed by nucleic acid extraction and qPCR analysis.
(§4) Extraction of viral DNA was carried out with the Viral Nucleic Acid Extraction Kit II (Geneaid, New Taipei City, China) according to the manufacturer’s instructions. The extracted DNA was stored at −20 °C. Quantitative PCRs (qPCRs) were used to determine the relative amount of viral DNA in the treated and control groups. The qPCRs were performed in a Bio-Rad® Real-Time PCR System instrument (Bio-Rad, Hercules, CA, USA) using the SensiFast^TM SYBR Hi-ROX Kit (Bioline, London, UK). The PCR mixture contained 10 µL of 2xSensifast SYBR mix, 0.8 µL of forward and reverse primers, 6.4 µL pf distilled water, and 2 µL of the target DNA. The final 20 µL mixture was used in a program that included an initial denaturing step at 95 °C for 3 min, followed by 40 cycles of 95 °C for 5 s and either 65 °C or 72 °C for 30 s. All the qPCRs were performed in duplicate, and the beta-actin gene of the EPC cells was used as an internal standard. The resulting qPCR data were analyzed by the Bio-Rad CFX Maestro Software. During the experiment, ranavirus major capsid protein forward and reverse primers were used for both the ECV and FV3 viruses. […]

Frog virus 3 (FV3) [5] = assay: qPCR of viral DNA load in infected EPC cells, FV3; assay type: cell-based; conditions: 800 µM acyclovir, MOI 0.05, 48 h, normalized to beta-actin
Experimental: as §3, §4

[6] = test system: Ictalurid herpesvirus 2 (IcHV-2); assay: qPCR of viral DNA load in infected EPC cells, IcHV-2; assay type: cell-based; conditions: 800 µM acyclovir, MOI 0.05, 48 h, normalized to beta-actin
Experimental: as §3, §4

IcHV-1 = conditions: 10 µM acyclovir, BB cells; cited from earlier work
[7] = test system: European catfish virus (ECV); assay: Endpoint virus titration (TCID50/mL) in EPC cells, ECV; assay type: cell-based; conditions: 800 µM acyclovir, 10 days, vs control
Experimental: as §1, §2

SMILES: Nc1nc2c(ncn2COCCO)c(=O)[nH]1 [acyclovir]
- Decrease of viral load (TCID50/mL titer) (Frog virus 3 (FV3) [1]): 11 fold
- viability at 3 days, 50 µM (in vitro): 113 ± 1.92%
- viability at 3 days, 100 µM (in vitro): 105 ± 1.48%
- viability at 3 days, 200 µM (in vitro): 111 ± 2.27%
- viability at 3 days, 400 µM (in vitro): 110 ± 3.45%
- viability at 3 days, 800 µM (in vitro): 103 ± 1.41%
- viability at 3 days, 1600 µM (in vitro): 94.3 ± 1.47%
- viability at 3 days, 3200 µM (in vitro): 103 ± 1.58%
- solubility [2]: 3.2 mM (≈ 721 µg/mL)
- Decrease of viral load (TCID50/mL titer) [3]: 30 fold
- Reduction (CyHV-3) (CyHV-3): 98%
- Reduction of viral DNA load (qPCR) [4]: 10^5 fold
- Reduction of viral DNA load (qPCR) (Frog virus 3 (FV3) [5]): 10^3 fold
- Reduction of viral DNA load (qPCR) [6]: 10^4 fold
- Reduction of plaque number (IcHV-1): 99%
- Decrease of viral load (TCID50/mL titer) [7]: 2500 fold
